# Activity calls are given as the source filed them. No cut-off for these calls is given here.
# Legend:
# [1] = system: Bone; experiment: Induction of bone regrowth in achondroplasia mouse model assessed as improvement in dwarfism by measuring L4-L6 spine segment size at 800 microg/kg, sc qd administered for 21 days; type: functional, organism-based; conditions: dose 800.0 µg/kg, time 21.0 day
# [2] = system: Bone; experiment: Induction of bone regrowth in achondroplasia mouse model assessed as improvement in dwarfism by measuring femur bone size at 800 microg/kg, sc qd administered for 21 days; type: functional, organism-based; conditions: dose 800.0 µg/kg, time 21.0 day
# [3] = system: Bone; experiment: Induction of bone regrowth in achondroplasia mouse model expressing FGFR3 Y367C mutant assessed as improvement in dwarfism by measuring foramen magnum bone size at 240 microg/kg, sc qd administered for 21 days; type: functional, organism-based; conditions: dose 240.0 µg/kg, time 21.0 day
# [4] = system: Bone; experiment: Induction of bone regrowth in achondroplasia mouse model expressing FGFR3 Y367C mutant assessed as improvement in dwarfism by measuring tibia bone size at 240 microg/kg, sc qd administered for 21 days; type: functional, organism-based; conditions: dose 240.0 µg/kg, time 21.0 day
# [5] = system: Bone; experiment: Induction of bone regrowth in achondroplasia mouse model expressing FGFR3 Y367C mutant assessed as improvement in dwarfism by measuring anterior-posterior diameter of the skull size at 240 microg/kg, sc qd administered for 21 days; type: functional, organism-based; conditions: dose 240.0 µg/kg, time 21.0 day
# [6] = system: Bone; experiment: Induction of bone regrowth in achondroplasia mouse model assessed as improvement in dwarfism by measuring foramen magnum bone size at 800 microg/kg, sc qd administered for 21 days; type: functional, organism-based; conditions: dose 800.0 µg/kg, time 21.0 day
# [7] = system: Bone; experiment: Induction of bone regrowth in achondroplasia mouse model expressing FGFR3 Y367C mutant assessed as improvement in dwarfism by measuring tail bone size at 240 microg/kg, sc qd administered for 21 days; type: functional, organism-based; conditions: dose 240.0 µg/kg, time 21.0 day
# [8] = system: Bone; experiment: Induction of bone regrowth in achondroplasia mouse model assessed as improvement in dwarfism by measuring anterior-posterior diameter of the skull size at 800 microg/kg, sc qd administered for 21 days; type: functional, organism-based; conditions: dose 800.0 µg/kg, time 21.0 day
# [9] = system: Bone; experiment: Induction of bone regrowth in achondroplasia mouse model assessed as improvement in dwarfism by measuring tail bone size at 800 microg/kg, sc qd administered for 21 days; type: functional, organism-based; conditions: dose 800.0 µg/kg, time 21.0 day
# [10] = system: Bone; experiment: Induction of bone regrowth in achondroplasia mouse model expressing FGFR3 Y367C mutant assessed as improvement in dwarfism by measuring L4-L6 spine segment size at 240 microg/kg, sc qd administered for 21 days; type: functional, organism-based; conditions: dose 240.0 µg/kg, time 21.0 day
# [11] = system: Bone; experiment: Induction of bone regrowth in achondroplasia mouse model assessed as improvement in dwarfism by measuring tibia bone size at 800 microg/kg, sc qd administered for 21 days; type: functional, organism-based; conditions: dose 800.0 µg/kg, time 21.0 day
# [12] = system: Bone; experiment: Induction of bone regrowth in achondroplasia mouse model expressing FGFR3 Y367C mutant assessed as improvement in dwarfism by measuring femur bone size at 240 microg/kg, sc qd administered for 21 days; type: functional, organism-based; conditions: dose 240.0 µg/kg, time 21.0 day
# [13] = system: Bone; experiment: Induction of bone regrowth in achondroplasia FVB mouse model assessed as improvement in dwarfism by measuring spine size at 203 microg/kg, sc qd administered for 35 days; type: functional; conditions: dose 203 µg/kg, time 35 day
# [14] = Induction of bone regrowth in achondroplasia Cynomolgus monkey model assessed as improvement in dwarfism by measuring ulna size at 203 microg/kg, sc qd administered for 35 days; type: functional, Macaca fascicularis; conditions: dose 203 µg/kg, time 35 day
# [15] = system: Bone; experiment: Induction of bone regrowth in achondroplasia FVB mouse model assessed as improvement in dwarfism by measuring spine size at 203 microg/kg, sc administered as continuous infusion for 35 days; type: functional; conditions: dose 203 µg/kg, time 35 day
# [16] = system: Bone; experiment: Induction of bone regrowth in achondroplasia FVB mouse model assessed as improvement in dwarfism by measuring femur size at 203 microg/kg, sc qd administered for 35 days; type: functional; conditions: dose 203 µg/kg, time 35 day
# [17] = Induction of bone regrowth in achondroplasia Cynomolgus monkey model assessed as improvement in dwarfism by measuring tail size at 203 microg/kg, sc qd administered for 35 days; type: functional, Macaca fascicularis; conditions: dose 203 µg/kg, time 35 day
# [18] = system: Bone; experiment: Induction of bone regrowth in achondroplasia FVB mouse model assessed as improvement in dwarfism by measuring tibia size at 203 microg/kg, sc administered as continuous infusion for 35 days; type: functional; conditions: dose 203 µg/kg, time 35 day
# [19] = system: Bone; experiment: Induction of bone regrowth in achondroplasia FVB mouse model assessed as improvement in dwarfism by measuring tibia size at 203 microg/kg, sc qd administered for 35 days; type: functional; conditions: dose 203 µg/kg, time 35 day
# [20] = system: Bone; experiment: Induction of bone regrowth in achondroplasia FVB mouse model assessed as improvement in dwarfism by measuring femur size at 203 microg/kg, sc administered as continuous infusion for 35 days; type: functional; conditions: dose 203 µg/kg, time 35 day
# [21] = system: Bone; experiment: Induction of bone regrowth in achondroplasia C57BL/6 mouse model expressing FGFR3 Y367C mutant assessed as improvement in dwarfism by measuring tail bone size at 2 mg/kg, sc administered for 15 days; type: functional; conditions: time 15 day
# [22] = system: Bone; experiment: Induction of bone regrowth in achondroplasia C57BL/6 mouse model expressing FGFR3 Y367C mutant assessed as improvement in dwarfism by measuring ulna bone size at 0.5 mg/kg, sc qd administered for 15 days; type: functional; conditions: time 15 day
# [23] = system: Bone; experiment: Induction of bone regrowth in achondroplasia C57BL/6 mouse model expressing FGFR3 Y367C mutant assessed as improvement in dwarfism by measuring anterior-posterior diameter of the skull size at 2 mg/kg, sc administered for 15 days; type: functional; conditions: time 15 day
# [24] = system: Bone; experiment: Induction of bone regrowth in achondroplasia C57BL/6 mouse model expressing FGFR3 Y367C mutant assessed as improvement in dwarfism by measuring tibia bone size at 0.5 mg/kg, sc qd administered for 15 days; type: functional; conditions: time 15 day
# [25] = system: Bone; experiment: Induction of bone regrowth in achondroplasia C57BL/6 mouse model expressing FGFR3 Y367C mutant assessed as improvement in dwarfism by measuring foramen magnum bone size at 2 mg/kg, sc administered for 15 days; type: functional; conditions: time 15 day
# [26] = system: Bone; experiment: Induction of bone regrowth in achondroplasia C57BL/6 mouse model expressing FGFR3 Y367C mutant assessed as improvement in dwarfism by measuring L4-L6 spine segment size at 2 mg/kg, sc administered for 15 days; type: functional; conditions: time 15 day
# [27] = system: Bone; experiment: Induction of bone regrowth in achondroplasia C57BL/6 mouse model expressing FGFR3 Y367C mutant assessed as improvement in dwarfism by measuring femur bone size at 2 mg/kg, sc administered for 15 days; type: functional; conditions: time 15 day
# [28] = system: Bone; experiment: Induction of bone regrowth in achondroplasia C57BL/6 mouse model expressing FGFR3 Y367C mutant assessed as improvement in dwarfism by measuring ulna bone size at 2 mg/kg, sc administered for 15 days; type: functional; conditions: time 15 day
# [29] = system: Bone; experiment: Induction of bone regrowth in achondroplasia C57BL/6 mouse model expressing FGFR3 Y367C mutant assessed as improvement in dwarfism by measuring femur bone size at 0.5 mg/kg, sc qd administered for 15 days; type: functional; conditions: time 15 day
# [30] = system: Bone; experiment: Induction of bone regrowth in achondroplasia C57BL/6 mouse model expressing FGFR3 Y367C mutant assessed as improvement in dwarfism by measuring humerus bone size at 0.5 mg/kg, sc qd administered for 15 days; type: functional; conditions: time 15 day
# [31] = system: Bone; experiment: Induction of bone regrowth in achondroplasia C57BL/6 mouse model expressing FGFR3 Y367C mutant assessed as improvement in dwarfism by measuring tibia bone size at 2 mg/kg, sc administered for 15 days; type: functional; conditions: time 15 day
# [32] = system: Bone; experiment: Induction of bone regrowth in achondroplasia C57BL/6 mouse model expressing FGFR3 Y367C mutant assessed as improvement in dwarfism by measuring humerus bone size at 2 mg/kg, sc administered for 15 days; type: functional; conditions: time 15 day
compound,measurement,setting,value
VOSORITIDE,Activity,[1],3.3%
same,Activity,[2],5.2%
same,Activity,[3],inactive
same,Activity,[4],3.7%
same,Activity,[5],2.9%
same,Activity,[6],inactive
same,Activity,[7],inactive
same,Activity,[8],4.8%
same,Activity,[9],8%
same,Activity,[10],2.8%
same,Activity,[11],6.6%
same,Activity,[12],3.4%
CC[C@H](C)[C@@H]1NC(=O)[C@H](CCCNC(=N)N)NC(=O)[C@H](CC(=O)O)NC(=O)[C@H](CC(C)C)NC(=O)[C@H](CCCCN)NC(=O)[C@H](CC(C)C)NC(=O)CNC(=O)[C@H](Cc2ccccc2)NC(=O)[C@@H](NC(=O)CNC(=O)[C@H](CCCCN)NC(=O)[C@H](CO)NC(=O)[C@H](CC(C)C)NC(=O)CNC(=O)[C@H](CCCCN)NC(=O)[C@H](CCCCN)NC(=O)[C@H](CC(N)=O)NC(=O)[C@H](C)NC(=O)CNC(=O)[C@H](CCCCN)NC(=O)[C@H](Cc2ccc(O)cc2)NC(=O)[C@H](CCCCN)NC(=O)[C@H](CCCNC(=N)N)NC(=O)[C@H](C)NC(=O)[C@H](CC(N)=O)NC(=O)[C@@H]2CCCN2C(=O)[C@H](Cc2c[nH]cn2)NC(=O)[C@H](CCC(=O)O)NC(=O)[C@H](CCC(N)=O)NC(=O)[C@@H](N)CC(C)C)CSSC[C@@H](C(=O)O)NC(=O)CNC(=O)[C@H](CC(C)C)NC(=O)CNC(=O)[C@H](CO)NC(=O)[C@H](CCSC)NC(=O)[C@H](CO)NC(=O)CNC1=O,Activity,[13],11.3%
same,Activity,[14],2.7%
same,Activity,[15],25%
same,Activity,[16],5.5%
same,Activity,[17],9%
same,Activity,[18],12.2%
same,Activity,[19],4%
same,Activity,[20],7.1%
CCN1CCN(c2ccc(Nc3cc(N(C)C(=O)Nc4c(Cl)c(OC)cc(OC)c4Cl)ncn3)cc2)CC1 [INFIGRATINIB],Activity,[21],26.5%
same,Activity,[22],11%
same,Activity,[23],20.9%
same,Activity,[24],16%
same,Activity,[25],16.8%
same,Activity,[26],12.1%
same,Activity,[27],20.9%
same,Activity,[28],22.3%
same,Activity,[29],11%
same,Activity,[30],7%
same,Activity,[31],32.6%
same,Activity,[32],11.9%

# From ChEMBL document CHEMBL5325441, “Current and emerging therapies for Achondroplasia: The dawn of precision medicine” (2023)
